This test relates to Staphylococcus aureus. In words: Antibacterial activity assay (MIC, broth dilution). It is filed as cell-based. The settings on record: for S. aureus Killing: anti-bacterial activity (MIC), strain not stated. Set-up: S. aureus Killing / Bacterial Killing S. aureus: unit not given here.

Counter-ions that a name gives are not always drawn.

The MIC is the least concentration at which growth counts as inhibited. `CN(C)c1ccc(/C=C/c2cc(-c3ccc(C(F)(F)F)cc3)cc(-c3ccc(C(F)(F)F)cc3)[o+]2)cc1.F[B-](F)(F)F`: the MIC (Staphylococcus aureus, Table 21, read-out: Staphylococcus aureus MIC) is more than 64 µg/mL.
Consider `Cc1cc(C)[o+]c(C)c1` [2,4,6-trimethylpyrylium boron tetrafluoride salt], for which the “S. aureus Killing” value is on record as more than 64.
With `Cc1cc(-c2ccc(C)c(C)c2)cc(-c2ccc(C)c(C)c2)[o+]1` [2,4-bis(3,4-dimethylphenyl)-6-methylpyrylium boron tetrafluoride salt], the “S. aureus Killing” value was more than 64.
In the case of `CN(C)c1ccc(/C=C/C=C/c2cc(-c3ccc(C(C)(C)C)cc3)cc(-c3ccc(C(C)(C)C)cc3)[o+]2)cc1` [2,4-bis(4-(tert-butyl)phenyl)-6-((1E,3E)-4-(4-(dimethylamino)phenyl)buta-1,3-dien-1-yl)pyrylium boron tetrafluoride salt], the “S. aureus Killing” value worked out at 64.
In the case of `Cc1cc(-c2ccc(C(C)(C)C)cc2)cc(-c2ccc(C(C)(C)C)cc2)[o+]1` [2,4-bis(4-(tert-butyl)phenyl)-6-methylpyrylium boron tetrafiuoride salt], the “S. aureus Killing” value is on record as more than 64.
Take `CN(C)c1ccc(/C=C/C=C/c2cc(-c3ccc(Br)cc3)cc(-c3ccc(Br)cc3)[o+]2)cc1` [2,4-bis(4-bromophenyi)-6-((1E,3E)-4-(4-(dimetliylamino)phenyl)buta-1,3-dien-1-yl)pyrylium boron tetrafluoride salt]: the “S. aureus Killing” value was more than 64.
With `CN(C)c1ccc(/C=C/C=C/c2cc(-c3ccc(Cl)cc3)cc(-c3ccc(Cl)cc3)[o+]2)cc1` [2,4-bis(4-chlorophenyl)-6-((1E,3E)-4-(4-(dimethylamino)phenyl)buta-1,3-dien-1-yl)pyrylium boron tetrafluoride salt], the “S. aureus Killing” value is on record as more than 64.
As to `Cc1cc(-c2ccc(Cl)cc2)cc(-c2ccc(Cl)cc2)[o+]1` [2,4-bis(4-chlorophenyl)-6-methylpyrylium boron tetrafluoride salt], the “S. aureus Killing” value is more than 64.
For the compound `CCc1ccc(-c2cc(C)[o+]c(-c3ccc(CC)cc3)c2)cc1` [2,4-bis(4-ethylphenyl)-6-methylpyrylium boron tetrafluoride salt], the “S. aureus Killing” value is given as more than 64.
As to `COc1ccc(-c2cc(C)[o+]c(-c3ccc(OC)cc3)c2)cc1` [2,4-bis(4-methoxyphenyl)-6-methylpyrylium boron tetrafluoride salt], the “S. aureus Killing” value is more than 64.
In the case of `Cc1ccc(-c2cc(/C=C/C=C/c3ccc(N(C)C)cc3)[o+]c(-c3ccc(C)c(C)c3)c2)cc1C` [2-((1E,3E)-4-(4-(dimethylamino)phenyl)buta-1,3-dien-1-yl)-4,6-bis(3,4~ dimethylphenyl) pyrylium boron tetrafluoride salt], the “S. aureus Killing” value was determined as 32.
`CCc1ccc(-c2cc(/C=C/C=C/c3ccc(N(C)C)cc3)[o+]c(-c3ccc(CC)cc3)c2)cc1` [2-((1E,3E)-4-(4-(dimethylamino)phenyl)buta-1,3-dien-1-yl)-4,6-bis(4-ethylphenyl) pyrylium boron tetrafluoride salt]: the “S. aureus Killing” value worked out at 8.
Turning to `Cc1ccc(-c2cc(/C=C/C=C/c3ccc(N(C)C)cc3)[o+]c(-c3ccc(C)cc3)c2)cc1` [2-((1E,3E)-4-(4-(dimethylamino)phenyl)buta-1,3-dien-1-yl)-4,6-di-p-tolylpyrylium boron tetrafluoride salt], the “S. aureus Killing” value is reported as 2.
In the case of `CN(C)c1ccc(/C=C/C=C/c2cc(-c3ccccc3)cc(-c3ccccc3)[o+]2)cc1` [2-((1E,3E)-4-(4-(dimethylamino)phenyl)buta-1,3-dien-1-yl)-4,6-diphenyl pyrylium boron tetrafluoride salt], the “S. aureus Killing” value stood at 4.
Turning to `Cc1cc(-c2ccccc2)cc(-c2ccccc2)[o+]1` [2-methy1-4,6-diphenylpyrylium boron tetrafluoride salt], the “S. aureus Killing” value is reported as more than 64.
For the compound `Cc1ccc(-c2cc(C)[o+]c(-c3ccc(C)cc3)c2)cc1` [2-methyl-4,6-di-p-tolylpyrylium boron tetrafluoride salt], the “S. aureus Killing” value is given as more than 64.
For the compound `Cc1cc(/C=C/C=C/c2ccc(N(C)C)cc2)cc(C)[o+]1` [4-((1E,3E)-4-(4-(dimethylamino)phenyl)buta-1,3-dien-1-yl)-2,6-dimethylpyrylium boron tetrafluoride salt], the “S. aureus Killing” value came to 32.
For `Cc1ccc(-c2cc(/C=C/c3cn(C)c4ccccc34)[o+]c(-c3ccc(C)c(C)c3)c2)cc1C` [(E)-2,4-bis(3,4-dimethylphenyl)-6-(2-(1-methyl-1H-indol-3-yl)vinyl)pyrylium boron tetrafluoride salt], the “S. aureus Killing” value was 1.
Take `CC(C)(C)c1ccc(-c2cc(/C=C/c3cc4c5c(c3)CCCN5CCC4)[o+]c(-c3ccc(C(C)(C)C)cc3)c2)cc1` [(E)-2,4-bis(4-(tert-butyl)phenyl)-6-(2-(1,2,3,5,6,7-hexahydropyrido [3,2,1-ij]quinolin-9-yl)vinyl)pyrylium boron tetrafluoride salt]: the “S. aureus Killing” value was found to be 32.
The same measure, in the same setting: the same measure for `Cn1cc(/C=C/c2cc(-c3ccc(C(C)(C)C)cc3)cc(-c3ccc(C(C)(C)C)cc3)[o+]2)c2ccccc21` [(E)-2,4-bis(4-(tert-butyl)phenyl)-6-(2-(1-methyl-1H-indol-3-yl)vinyl)pyrylium boron tetrafluoride salt]: 16; for `CN(C)c1ccc(/C=C/c2cc(-c3ccc(C(C)(C)C)cc3)cc(-c3ccc(C(C)(C)C)cc3)[o+]2)cc1` [(E)-2,4-bis(4-(tert-butyl)phenyl)-6-(4-(dimethylamino)styryl)pyrylium boron tetrafluoride salt]: 8.
For the compound `Cn1cc(/C=C/c2cc(-c3ccc(Br)cc3)cc(-c3ccc(Br)cc3)[o+]2)c2ccccc21` [(E)-2,4-bis(4-bromophenyl)-6-(2-(1-methyl-1H-indol-3-yl)vinyl)pyrylium boron tetrafluoride salt], the “S. aureus Killing” value turned out to be 64.
Consider `Clc1ccc(-c2cc(/C=C/c3cc4c5c(c3)CCCN5CCC4)[o+]c(-c3ccc(Cl)cc3)c2)cc1` [(E)-2,4-bis(4-chlorophenyl)-6-(2-(1,2,3,5,6,7-hexahydropyrido [3,2,1-ij]quinolin-9-yl)vinyl)pyrylium boron tetrafluoride salt], for which the “S. aureus Killing” value stood at 1.
For the compound `Cn1cc(/C=C/c2cc(-c3ccc(Cl)cc3)cc(-c3ccc(Cl)cc3)[o+]2)c2ccccc21` [(E)-2,4-bis(4-chlorophenyl)-6-(2-(1-methyl-1H-indol-3-yl)vinyl)pyrylium boron tetrafluoride salt], the “S. aureus Killing” value amounted to 64.
As to `Brc1ccc(-c2cc(/C=C/c3cc4c5c(c3)CCCN5CCC4)[o+]c(-c3ccc(Br)cc3)c2)cc1` [(E)-2,4-bis(4~ bromophenyl)-6-(2-(1,2,3,5,6,7-hexahydropyrido [3,2,1-ij]quinolin-9-yl)vinyl)pyrylium boron tetrafluoride salt], the “S. aureus Killing” value amounted to 4.
With `Cc1ccc(-c2cc(/C=C/c3cc4c5c(c3)CCCN5CCC4)[o+]c(-c3ccc(C)cc3)c2)cc1` [(E)-2-(2-(1,2,3,5,6,7-hexahydropyrido [3,2,1-ij]quinolin-9-yl)vinyl)-4,6-di-p-tolylpyrylium boron tetrafluoride salt], the “S. aureus Killing” value stood at 1.
With `C(=C\c1cc(-c2ccccc2)cc(-c2ccccc2)[o+]1)/c1cc2c3c(c1)CCCN3CCC2` [(E)-2-(2-(1,2,3,5,6,7-hexahydropyrido [3,2,1-ij]quinolin-9-yl)vinyl)-4,6-diphenylpyrylium boron tetrafluoride salt], the “S. aureus Killing” value is 1.
In the case of `Cc1ccc(-c2cc(/C=C/c3cn(C)c4ccccc34)[o+]c(-c3ccc(C)cc3)c2)cc1` [(E)-2-(2-(1-methyl-1H-indol-3-yl)vinyl)-4,6-di-p-tolylpyrylium boron tetrafluoride salt], the “S. aureus Killing” value worked out at 0.5.
Turning to `Cn1cc(/C=C/c2cc(-c3ccccc3)cc(-c3ccccc3)[o+]2)c2ccccc21` [(E)-2-(2-(1-methyl-1H-indol-3-yl)vinyl)-4,6-diphenylpyrylium boron tetrafluoride salt], the “S. aureus Killing” value turned out to be 0.5.
Turning to `Cc1ccc(-c2cc(/C=C/c3c[nH]c4ccccc34)[o+]c(-c3ccc(C)c(C)c3)c2)cc1C` [(E)-2-(2-(1H-indol-3-yl)vinyl)-4,6-bis(3,4-dimethylphenyl) pyrylium boron tetrafluoride salt], the “S. aureus Killing” value was 4.
Same read-out and setting: the same measure for `Brc1ccc(-c2cc(/C=C/c3c[nH]c4ccccc34)[o+]c(-c3ccc(Br)cc3)c2)cc1` [(E)-2-(2-(1H-indol-3-yl)vinyl)-4,6-bis(4-bromophenyl) pyrylium boron tetrafluoride salt]: more than 64; for `Clc1ccc(-c2cc(/C=C/c3c[nH]c4ccccc34)[o+]c(-c3ccc(Cl)cc3)c2)cc1` [(E)-2-(2-(1H-indol-3-yl)vinyl)-4,6-bis(4-chlorophenyl) pyrylium boron tetrafluoride salt]: 16; for `CCc1ccc(-c2cc(/C=C/c3c[nH]c4ccccc34)[o+]c(-c3ccc(CC)cc3)c2)cc1` [(E)-2-(2-(1H-indol-3-yl)vinyl)-4,6-bis(4-ethylphenyl) pyrylium boron tetrafluoride salt]: 4.
With `Cc1ccc(-c2cc(/C=C/c3c[nH]c4ccccc34)[o+]c(-c3ccc(C)cc3)c2)cc1` [(E)-2-(2-(1H-indol-3-yl)vinyl)-4,6-di-p-tolylpyiylium boron tetrafluoride salt], the “S. aureus Killing” value was found to be 4.
For the compound `C(=C\c1c[nH]c2ccccc12)/c1cc(-c2ccccc2)cc(-c2ccccc2)[o+]1` [(E)-2-(2-(1H-indol-3-yl)vinyl)-4,6-diphenylpyrylium boron tetrafluoiide salt], the “S. aureus Killing” value amounted to 1.
`CC(C)(C)c1ccc(-c2cc(/C=C/c3c[nH]c4ccccc34)[o+]c(-c3ccc(C(C)(C)C)cc3)c2)cc1` [(E)-2-(2-(1H-mdol-3-yl)vinyl)-4,6-bis(4-(tert-butyl)phenyl) pyrylium boron tetrafluoride salt]: the “S. aureus Killing” value is recorded as 32.
Turning to `Cc1ccc(-c2cc(/C=C/c3ccc(N(C)C)cc3)[o+]c(-c3ccc(C)c(C)c3)c2)cc1C` [(E)-2-(4-(dimethylamino)styryl)-4,6-bis(3,4-dimethylphenyl) pyrylium boron tetrafluoride salt], the “S. aureus Killing” value is reported as 2.

The values are drawn from US10941114B2, “Small molecule lipid II inhibitors” (University Of Maryland, Baltimore, priority 2015, dated 2021).
